Experimental data: paper PMC7288058, “Modulating the Properties of Fe(III) Macrocyclic MRI Contrast Agents by Appending Sulfonate or Hydroxyl Groups” (Molecules, 2020)
Where “and” joins values, the source holds several entries; their conditions need not be identical. Identical values can stand only once.

Legend:
[1] = pH-potentiometric titrations of the intact Fe(III) complexes; format: physicochemical; details: potentiometric titration, 25 °C, 0.10 M NaCl, 1–2 mM meglumine
From the text: The pH-potentiometric titrations of the intact Fe(III) complexes were studied to determine the equilibrium constants for deprotonation of ligand groups such as the hydroxyl pendants or water ligand. […] For Fe(L1)(OH2) and Fe(L3)(OH2), either an alcohol pendant group or water ligand might ionize but, for Fe(L2), we only consider alcohol pendant groups. […] Ionization of the water ligand at near neutral pH cannot be ruled out, but is not considered to be likely based on prior studies [19]. […] The group that produces this ionization is not likely to be a bound water or hydroxyl group given that the coordination sphere is very similar to that of Fe(L3)(OH2). […] A weak hydrogen bonding interaction to a hydroxyl pendent or bound water might produce such an environment.
All solutions were prepared by using carbonate-free water.
Fe(L1)(OH2): The solution contained 0.527 mM Fe(III) complex added as the chloride salt, 1.00 mM meglumine, 0.100 M NaCl, and 3.72 mM HCl to decrease the pH of the solution to pH 3 in total volume of 20.00 mL. The solution was titrated with a 98.83 mM NaOH solution. Then, 5.00 µL aliquots of the NaOH solution were added over 60 s with an interval of 300 s using a Nexus 3000 High Flow Syringe Pump from Chemyx Inc (Stafford, TX, USA) equipped with a 10-mL Hamilton gastight syringe.
Fe(L2): The solution contained 0.75 mM Fe(III) complex added as the chloride salt, 2.00 mM meglumine, 0.100 M NaCl, and 6.00 mM HCl to decrease the pH of the solution to pH 3 in total volume of 25.00 mL. The solution was titrated with a 94.86 mM NaOH solution. Then, 5.00 µL aliquots of the NaOH solution were added over 60 s with an interval of 300 s using a Nexus 3000 High Flow Syringe Pump from Chemyx Inc (Stafford, TX) equipped with a 10-mL Hamilton gastight syringe.
In all fits of the data, meglumime was used as a third reagent, and the equilibrium equation corresponding to its ionization was added to the model data fit as determined from separate titrations. The titration was completed under Ar(g) at 25 °C. The titrations were monitored from pH 3 to pH 11. Equilibrium constants for all complexes were determined by fitting the data using [sequence] 2013 Version 6.0.1. Speciation diagrams were plotted by utilizing HySS Version 4.0.31.

[2] = 1-octanol/water partition coefficient (log P) by ICP-MS; format: physicochemical; details: 20 mM HEPES pH 7.4, 100 mM NaCl
Protocol: To compare the lipophilicity of the complexes, the 1-octanol/water partition coefficients (log P) were determined.
Fe(III) complex solutions (0.500 mM) were prepared in 1.00 mL of H2O with 20.0 mM HEPES buffer (pH 7.4) and 100.0 mM NaCl. 0.500 mL of Fe(III) complex solution and 0.500 mL of 1-octanol was prepared. The mixture was shaken for 24 h, then centrifuged at 13,000 rpm for 1 min. Then, the solution was allowed to stand for 1 h. Iron concentration in the aqueous layer before and after mixing with 1-octanol was determined by ICP-MS. […] (3) logP=log(Co/Cw).

[3] = target: T1, human serum albumin (HSA) (Homo sapiens, UniProt P02768); test: Binding to human serum albumin by ultrafiltration / ICP-MS; format: in vitro ADME; details: 0.4 mM complex, HSA 4.5% (w/v) (0.7 mM), 20 mM HEPES pH 7.4, 100 mM NaCl, 37 °C, 20 min
T1 construct: Albumin from human serum (fatty acid free) was purchased from Sigma-Aldrich; purchased Sigma-Aldrich; host or cells: purified from human serum
Protocol: Binding of the Fe(III) complexes to human serum albumin (HSA) was studied by using ultrafiltration across a MW 5000 cutoff membrane. The solutions containing HEPES buffer (pH 7.4) and salt NaCl were incubated at 37 °C for 20 min. Solutions contained 0.4 mM Fe(III) complex and 4.5 % (w/v) HSA (0.7 mM). The binding percentages were measured by using ICP-MS to analyze the Fe concentration in the unbound complex solutions after HSA incubation (Table 1). The protein binding for Fe(L3)(OH2) was higher (75%) than for Fe(L1)(OH2) (37%) or Fe(L2) (11%).
The molecular weight of 66,435 Da was used to determine the molar concentrations of HSA. Fe(III) complex (0.400 mM) solutions were incubated with 4.5% (w/v) HSA in 0.100 M NaCl and 20.0 mM HEPES buffer (pH 7.4). All solutions were incubated at 37 °C for 20 min [42]. Aliquots (0.300 mL) were placed in ultra-centrifugal filter units with a 5-kDa membrane and centrifuged at 3500× g for 10 min. The filtrates were used to determine Fe concentration from digested unbound Fe(III) complexes by using ICP-MS.

[4] = Kinetic inertness / dissociation monitored by UV-Vis absorbance; format: physicochemical; details: 100 mM HCl, 37 °C
Protocol: The complexes have electronic absorbance bands at 325 nm and 330 nm with extinction coefficients ranging from 1570 M^−1∙cm^−1 to 3800 M^−1∙cm^−1 (Figures S16–S21, Table S2, Supplementary Materials). These absorbance peaks were monitored to study the dissociation of the complexes in 100 mM HCl acid solution, or in solutions containing 25 mM hydrogen carbonate and 0.40 mM hydrogen phosphate at 37 °C. […] In acidic solution (100 mM HCl), the dissociation of Fe(L1)(OH2) was estimated as 18.1% over 24 h and 53.6% over 72 h based on absorbance changes. For comparison, the dissociation of the Fe(L2) complex in acidic solution (100 mM HCl) was 7.9% over 48 h, and the dissociation of Fe(L3)(H2O) was 14% over 24 h and 38% over 72 h.
Absorbance of Fe(III) complexes was measured from 200–800 nm over a period of 48 and 72 h. A Peltier temperature controller was used to keep the temperature at 37 °C. The sample solutions contained 0.200 mM Fe(III) complex. Solutions for kinetic inertness experiments contained 25.0 mM NaHCO3, […] Na2HPO4, and 10.0 mM HEPES buffer (pH 7.4). Acidic solutions for the kinetic inertness experiments contained 0.10 M HCl. For each of these experiments, extinction coefficients were determined by using by using the Beer–Lambert law as given in Table S2 (Supplementary Materials).

T1 sequence (P02768 25-609): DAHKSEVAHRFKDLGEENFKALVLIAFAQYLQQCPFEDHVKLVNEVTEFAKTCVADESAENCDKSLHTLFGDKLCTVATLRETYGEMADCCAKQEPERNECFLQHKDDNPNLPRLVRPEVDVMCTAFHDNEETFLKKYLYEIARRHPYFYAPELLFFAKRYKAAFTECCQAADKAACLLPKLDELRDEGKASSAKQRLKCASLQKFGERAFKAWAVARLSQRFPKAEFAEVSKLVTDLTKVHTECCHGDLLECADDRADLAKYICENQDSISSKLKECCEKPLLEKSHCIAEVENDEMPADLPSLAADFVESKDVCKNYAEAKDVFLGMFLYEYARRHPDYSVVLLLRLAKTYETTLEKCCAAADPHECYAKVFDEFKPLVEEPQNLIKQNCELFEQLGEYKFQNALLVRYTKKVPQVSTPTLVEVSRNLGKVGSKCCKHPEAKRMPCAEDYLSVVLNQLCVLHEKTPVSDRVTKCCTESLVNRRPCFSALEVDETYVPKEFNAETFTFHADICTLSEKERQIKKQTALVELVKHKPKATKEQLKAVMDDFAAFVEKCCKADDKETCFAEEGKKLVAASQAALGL

dissociation in acidic solution ([4]; over 48 h) [%] | Compound | Log K1 (pKa2) [1] | Log K2 (pKa1) [1] | Log P [2] | HSA Binding (%) [3] | dissociation in acidic solution ([4]; over 24 h, estimated from absorbance changes) [%] | dissociation in acidic solution ([4]; over 72 h, estimated from absorbance changes) [%]
7.9 | C[C@H]([O-])CN1CCN(C[C@H](C)O)CCN(C[C@H](C)O)CC1.[Fe+3] [Fe(L2)] | 11.78 ± 0.11 | 6.57 ± 0.05 | −1.60 ± 0.1 | 11% and 11.2 ± 2.8% |  | 
 | C[C@H]([O-])CN1CCN(CCCS(=O)(=O)[O-])CCN(C[C@H](C)O)CC1.O.[Fe+3] [Fe(L1)(OH2)] | 7.55 ± 0.08 | 3.39 ± 0.17 | −1.67 | 37% and 36.8 ± 0.2% | 18.1 | 53.6
